From patent US10201527B2, “Benzimidazole derivatives: preparation and pharmaceutical applications” (MEI PHARMA, INC., priority 2003, dated 2019)

What was measured:
[1] = test system: acetylated histone 3 [AcH3(lys9/14)] in Colo205 cells; experiment: Histone H3 acetylation assay, ELISA approach; assay type: cell-based; conditions: Homo sapiens, COLO 205, read-out: EC50, concentration effective for induction of acetylation of histone 3 ([AcH3(lys9/14)]) signal by 50%, 24 h treatment
Protocol: Histone H3 Acetylation Assay—ELISA Approach
An Enzyme Linked Immunosorbent Assay (ELISA) can be applied to detect and quantify the acetylated histone3 (AcH3) in the protein lysate obtained from cancer cell lines treated with the HDAC inhibitors.
The ELISA assay was developed to detect the level of AcH3 from the Colo205 colon cancer cell line treated with 10 μM HDAC inhibitory compounds. The protein lysates from untreated and treated Colo205 were obtained as previously described. The concentration of protein from lysed cells was determined using the BCA method (Sigma-Aldrich Pte Ltd).
The detection antibody used in this ELISA was donkey anti rabbit conjugated with peroxidase.
Colo205 cells were subsequently treated with HDAC inhibitors at different doses (in duplicates, 9 doses treatment, 4-fold dilutions from 100 μM). After treatment for 24 h, cells were lysed and the protein concentration was determined.
The ELISA plate (immulon 2HB plate, Biolaboratories Pte Ltd) was coated with 4 μg/ml of mouse monoclonal antibody against H3 at 4° C. overnight. […] The absorbance was measured at OD450 nm using Spectromax reader (Molecular Devices Corporation, Sunnyvale, Calif.).
The standard curve was drawn and the concentration of AcH3 [(Lys9/14), μg/ml] in a sample was determined using the Softmax software in Spectromax. The amount of AcH3 in a sample was calculated based on the following formula; […]

HDAC3 = HDAC3 (Homo sapiens (Human), UniProt O15379); experiment: In vitro HDAC assay, HDAC3; assay type: biochemical; conditions: Free base
Protocol: In Vitro HDAC Assay for Determination of IC50 Values
The assay has been carried out in 96 well format and the BIOMOL fluorescent-based HDAC activity assay has been applied. […] Flur de lys Developer was added and the reaction was incubated for 10 min. Briefly, deacetylation of the substrate sensitizes it to the developer, which then generates a fluorophore (symbol). The fluorophore is excited with 360 nm light and the emitted light (460 nm) is detected on a fluorometric plate reader (Tecan Ultra Microplate detection system, Tecan Group Ltd.).
The analytical software, Prism 3.0 has been used to generate IC50 from a series of data.

MDA-MB435 cells = experiment: Cell-based proliferation assay (cyquant), MDA-MB435; conditions: Homo sapiens, MDA-MB-435; 96 h treatment
Protocol: Cell-Based Proliferation Assay for Determination of GI50 Values
Human colon cancer cell lines (Colo205 and HCT116), human breast cancer cell lines (MDA-MB435 and MDA-MB231), and human lung cancer cell line (A549) were obtained from ATCC. Colo205 cells were cultivated in RPMI 1640 containing 2 mM L-Glutamine, 5% FBS, 1.0 mM Na Pyruvate. A549 and MDA-MB231 were cultivated in RPMI 1640 containing 2 mM L-glutamine, 5% FBS. MDA-MB435 cells were cultivated in DMEM containing 2 mM L-Glutamine, 5% FBS. HCT116 cells were cultivated in IMEM containing 2 mM L-Glutamine, 5% FBS. A549 and Colo205 cells were seeded in 96-wells plate at 2000 and 5000 cells per well respectively. MDA-MB435, HCT116, MDA-MB231 cells were seeded in 96-wells plate at 6000 cells per well. The plates were incubated at 37° C., 5% CO2, for 24 h. Cells were treated with compounds at various concentration for 96 h. Cell growth was then monitored using cyquant cell proliferation assay (Invitrogen Pte Ltd). Dose response curves were plotted to determine GI50 values for the compounds using XL-fit.

Colo205 cells = experiment: Cell-based proliferation assay (cyquant), Colo205; conditions: Homo sapiens, 96 h treatment;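 note: Colo205 human colon cancer cells exposed to compounds over a concentration range for 96 h, growth read by CyQUANT proliferation assay, GI50 taken from fitted dose-response curves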
Protocol: A549 and Colo205 cells were seeded in 96-wells plate at 2000 and 5000 cells per well respectively. […] The plates were incubated at 37° C., 5% CO2, for 24 h. Cells were treated with compounds at various concentration for 96 h. Cell growth was then monitored using cyquant cell proliferation assay (Invitrogen Pte Ltd). Dose response curves were plotted to determine GI50 values for the compounds using XL-fit.

[2] = molecular target: HDAC1 enzyme (recombinant GST-HDAC1) (Homo sapiens (Human), UniProt Q13547); experiment: In vitro HDAC assay (BIOMOL fluorescent-based), HDAC1 enzyme; assay type: biochemical
Protocol: (§1) Expression of GST-HDAC1 or HTGST-HDAC8 was done by infecting SF9 cells (Invitrogen Pte Ltd) with pDEST20-HDAC1 or pFASTBAC-GST-HDAC8 baculovirus at MOI=1 for 48 h. Soluble cell lysate was incubated with pre-equilibrated Glutathione Sepharose 4B beads (Amersham) at 4° C. for 2 h. The beads were washed with PBS buffer for 3 times. The GST-HDAC1 protein or GST-HDAC8 protein was eluted by elution buffer containing 50 mM Tris, pH8.0, 150 mM NaCl, 1% Triton X-100 and 10 mM or 20 mM reduced Glutathione. The purified GST-HDAC1 protein or purified GST-HDAC8 protein was dialyzed with HDAC storage buffer containing 10 mM Tris, pH7.5, 100 mM NaCl and 3 mM MgCl2. 20% Glycerol was added to purified GST-HDAC1 protein or purified GST-HDAC8 before storage at −80° C.

[3] = molecular target: HDAC8 enzyme (recombinant GST-HDAC8) (Homo sapiens (Human), UniProt Q9BY41); experiment: In vitro HDAC assay (BIOMOL fluorescent-based), HDAC8 enzyme; assay type: biochemical
Sequence of HDAC8 enzyme (recombinant GST-HDAC8) (Q9BY41 whole entry): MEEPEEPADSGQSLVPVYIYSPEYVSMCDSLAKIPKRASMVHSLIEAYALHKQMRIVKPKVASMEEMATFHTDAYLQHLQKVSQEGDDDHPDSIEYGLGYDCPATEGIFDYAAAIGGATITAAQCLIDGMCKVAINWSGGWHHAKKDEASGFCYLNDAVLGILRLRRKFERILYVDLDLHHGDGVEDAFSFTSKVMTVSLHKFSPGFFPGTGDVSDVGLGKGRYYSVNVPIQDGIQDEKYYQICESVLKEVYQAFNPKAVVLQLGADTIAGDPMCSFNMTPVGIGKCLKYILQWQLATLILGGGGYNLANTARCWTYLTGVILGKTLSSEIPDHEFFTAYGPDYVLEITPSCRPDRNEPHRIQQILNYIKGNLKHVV
Protocol: as §1

Sequence of HDAC3 (O15379 whole entry): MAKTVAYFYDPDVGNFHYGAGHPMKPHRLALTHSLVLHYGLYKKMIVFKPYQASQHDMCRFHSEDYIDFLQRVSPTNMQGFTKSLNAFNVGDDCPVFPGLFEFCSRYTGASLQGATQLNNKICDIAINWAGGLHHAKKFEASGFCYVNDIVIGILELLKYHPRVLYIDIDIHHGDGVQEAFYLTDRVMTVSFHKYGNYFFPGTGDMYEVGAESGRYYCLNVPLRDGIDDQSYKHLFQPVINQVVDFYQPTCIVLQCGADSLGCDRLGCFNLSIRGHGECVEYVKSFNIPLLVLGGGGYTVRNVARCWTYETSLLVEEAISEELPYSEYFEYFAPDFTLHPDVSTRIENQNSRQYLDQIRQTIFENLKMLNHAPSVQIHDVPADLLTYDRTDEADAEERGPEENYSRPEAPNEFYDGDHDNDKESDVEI
Sequence of HDAC1 enzyme (recombinant GST-HDAC1) (Q13547 whole entry): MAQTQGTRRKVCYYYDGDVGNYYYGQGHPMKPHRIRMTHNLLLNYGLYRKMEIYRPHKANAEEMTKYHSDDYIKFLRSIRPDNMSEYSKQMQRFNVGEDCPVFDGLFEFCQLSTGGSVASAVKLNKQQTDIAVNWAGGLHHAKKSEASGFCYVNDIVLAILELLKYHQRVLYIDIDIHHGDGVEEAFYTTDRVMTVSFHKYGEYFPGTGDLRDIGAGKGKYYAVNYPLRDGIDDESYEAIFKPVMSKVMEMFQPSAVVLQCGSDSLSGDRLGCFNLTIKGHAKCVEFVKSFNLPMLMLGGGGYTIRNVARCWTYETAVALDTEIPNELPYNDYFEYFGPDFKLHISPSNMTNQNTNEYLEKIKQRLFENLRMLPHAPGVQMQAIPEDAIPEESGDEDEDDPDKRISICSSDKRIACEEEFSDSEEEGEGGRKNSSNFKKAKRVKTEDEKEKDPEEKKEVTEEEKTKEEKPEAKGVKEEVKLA

| SMILES | GI50 (MDA-MB435 cells) [nM] | GI50 (Colo205 cells; COLO 205) [nM] | further results |
| --- | --- | --- | --- |
| CN(C)CC(C)(C)Cn1c(CCc2ccccc2)nc2cc(/C=C/C(=O)NO)ccc21 [Compound 17, N-Hydroxy-3-[1-(3-Dimethylamino-2,2-dimethyl-proppyl)-2-phenethyl-1H-benzimidazol-5-yl]-acrylamide] | – | – | EC50 [1]: 1100 nM; IC50 (HDAC3): 29 nM |
| O=C(/C=C/c1ccc2c(c1)nc(-c1ccccn1)n2CCCO)NO [Compound 13, N-Hydroxy-3-[1-(3-hydroxy-propyl)-2-(2-pyridyl)-1H-benzimidazol-5-yl]-acrylamide] | 14000 | 12300 | – |
| O=C(/C=C/c1ccc2c(c1)nc(CCc1ccccc1)n2CCCn1ccnc1)NO [Compound 56, N-Hydroxy-3-[1-(3-imidazol-1-yl-propyl)-2-phenethyl-1H-benzimidazol-5-yl]-acrylamide] | > 100000 | > 100000 | – |
| CCn1c(CNCc2ccccc2)nc2cc(/C=C/C(=O)NO)ccc21 [Compound 64, N-Hydroxy-3-[2-(benzylamino-methyl)-ethyl-1H-benzimidazol-5-yl]-acrylamide] | – | 1700 | – |
| COc1cc(Cn2c(CCc3ccccc3)nc3cc(CCC(=O)NO)ccc32)cc(OC)c1OC [Compound 45] | 1900 | 2410 | – |
| O=C(/C=C/c1ccc2c(c1)nc(COCc1ccccc1)n2CCCO)NO [Compound 19] | 3970 | 4100 | – |
| O=C(/C=C/c1ccc2c(c1)nc(CCc1ccccc1)n2Cc1ccccn1)NO [Compound 16, N-Hydroxy-3-(2-phenethyl-1-(pyridin-2-yl)methyl-1H-benzimidazol-5-yl)-acrylamide] | 980 | 940 | – |
| CCCn1c(CCc2ccccc2)nc2cc(/C=C/C(=O)NO)ccc21 [Compound 36, N-Hydroxy-3-(2-phenethyl-1-propyl-1H-benzimidazol-5-yl}-acrylamide] | 2170 | 2290 | – |
| CC(C)Cc1nc2cc(/C=C/C(=O)NO)ccc2n1CCc1ccccc1 [Compound 25, N-Hydroxy-3-(2-isobutyl-1-phenethyl-1H-benzimidazol-5-yl]-acrylamide] | 6820 | 8100 | – |
| COc1ccc(-c2nc3cc(/C=C/C(=O)NO)ccc3n2CC(O)CO)cc1 (centres unmarked) [Compound 6, N-Hydroxy-3-[1-(2,3-hydroxy-propyl)-2-(4-methoxy-phenyl)-1H-benzimidazole-5-yl]-acrylamide] | – | > 100000 | – |
| O=C(/C=C/c1ccc2nc(CCc3ccccc3)n(Cc3ccccc3)c2c1)NO [Compound 58] | – | – | IC50 [2]: 1140 nM |
| CN(C)CC(C)(C)Cn1c(SCc2ccccc2)nc2cc(/C=C/C(=O)NO)ccc21 [Compound 89, N-Hydroxy-3-[2-benzylsulfanyl-1-(3-dimethylamino-2-2,dimethyl-propyl)-1H-benzimidazol-5-yl]-acrylamide] | – | – | GI50 (Colo205 cells; COLO 205, 96 h): 120 nM |
| O=C(/C=C/c1ccc2c(c1)nc(CCc1ccccc1)n2CCN1CCCCC1)NO [Compound 67, N-Hydroxy-3-[2-phenethyl-1-(piperidin-1-yl-ethyl)-1H-benzimidazol-5-yl]-acrylamide] | – | – | IC50 (HDAC3): 56 nM |
| Cn1c(CNC(=O)Cc2ccccc2)nc2cc(/C=C/C(=O)NO)ccc21 [Compound 54] | 5920 | 4470 | – |
| COc1cc(-c2nc3cc(/C=C/C(=O)NO)ccc3n2CC(O)CO)ccc1OCc1ccccc1 (centres unmarked) [Compound 7, N-Hydroxy-3-[2-(4-benzyloxy-3-methoxy-phenyl)-1-(2,3-hydroxy-propyl)-1H-benzimidazole-5-yl]-acrylamide] | – | > 100000 | – |
| CN(C)CC(C)(C)Cn1c(CCCc2ccccc2)nc2cc(/C=C/C(=O)NO)ccc21 [Compound 83] | – | 250 | – |
| O=C(/C=C/c1ccc2c(c1)nc(CCc1ccccc1)n2CCN1CCCC1)NO [Compound 72, N-Hydroxy-3-[2-phenyethyl-1-(2-pyrrolidin-1-yl-ethyl)-1H-benzimidazol-5-yl]-acrylamide] | – | 180 | – |
| Cc1nc2cc(/C=C/C(=O)NO)ccc2n1C [Compound 53] | – | – | IC50 [2]: 1850 nM |
| COc1cc(Cn2c(CCc3ccccc3)nc3cc(/C=C/C(=O)NO)ccc32)cc(OC)c1OC [Compound 2, N-Hydroxy-3-[1-(3,4,5-trimethoxybenzyl)-2-(2-phenyl-ethyl)-1H-benzimidazol-5-yl]-acrylamide] | – | – | EC50 [1]: 1700 nM; IC50 (HDAC3): 64 nM |
| O=C(O)CCn1c(CCc2ccccc2)nc2cc(/C=C/C(=O)NO)ccc21 [Compound 32, 3-[5-(2-Hydrocarbamoyl-vinyl)-2-phenethyl-benzimidazol-1-yl]-propionic acid] | – | – | IC50 [3]: 1890 nM |
| O=C(/C=C/c1ccc2c(c1)nc(C1CCCCC1)n2CCCO)NO [Compound 24, N-Hydroxy-[2-cyclohexyl-1-(3-hydroxy-propyl)-1H-benzimidazol-5-yl]-acrylamide] | 35000 | 30700 | – |
| O=C(/C=C/c1ccc2c(c1)nc(CCc1ccccc1)n2CCCN1CCOCC1)NO [Compound 31, N-Hydroxy-3-[1-(3-morpholin-4-propyl]-2-phenethyl-1H-benzimidazol-5-yl}-acrylamide] | 4060 | 1870 | – |
| CC(C)Cc1nc2cc(/C=C/C(=O)NO)ccc2n1CCc1ccccn1 [Compound 22] | 13400 | 13500 | – |
| O=C(/C=C/c1ccc2c(c1)nc(-c1ccccn1)n2CC(O)CO)NO (centres unmarked) [Compound 9, N-Hydroxy-3-[1-(2,3-hydroxy-propyl)-2-(2-pyridyl)-1H-benzimidazol-5-yl]-acrylamide] | > 100000 | > 100000 | – |

Continued, in another order:

| GI50 (MDA-MB435 cells) [nM] | GI50 (Colo205 cells; COLO 205) [nM] | SMILES | further results |
| --- | --- | --- | --- |
| – | 2900 | CCn1c(CCNC(=O)Cc2ccccc2)nc2cc(/C=C/C(=O)NO)ccc21 [Compound 70] | – |
| 1910 | 1650 | CC(Cc1nc2cc(/C=C/C(=O)NO)ccc2n1CCc1cccnc1)c1ccccc1 (centres unmarked) [Compound 41] | – |
| 6160 | 4690 | O=C(/C=C/c1ccc2c(c1)nc(CCc1ccccc1)n2CCc1ccccn1)NO [Compound 18] | – |
| – | 7160 | Cn1c(CNC(=O)Cc2ccc(F)cc2)nc2cc(/C=C/C(=O)NO)ccc21 [Compound 69] | – |
| 58400 | 41400 | O=C(/C=C/c1ccc2c(c1)nc(CCc1ccccc1)n2CC(O)CO)NO (centres unmarked) [Compound 8] | – |
| > 100000 | > 100000 | Cn1c(CNC(=O)c2ccncc2)nc2cc(/C=C/C(=O)NO)ccc21 [Compound 55] | IC50 [2]: 137 nM |
| 3050 | 2690 | Cn1c(CN(Cc2ccccc2)Cc2ccccc2)nc2cc(/C=C/C(=O)NO)ccc21 [Compound 61] | – |
| – | 730 | CCn1c(CN(Cc2ccccc2)Cc2ccccc2)nc2cc(/C=C/C(=O)NO)ccc21 [Compound 68] | – |
| 5150 | 2530 | O=C(/C=C/c1ccc2c(c1)nc(COCc1ccccc1)n2CCc1cccnc1)NO [Compound 28] | – |
| 4070 | 1990 | COCCCn1c(CCc2ccccc2)nc2cc(/C=C/C(=O)NO)ccc21 [Compound 15] | – |
| – | 6670 | CCn1c(CCNC(=O)COc2ccccc2)nc2cc(/C=C/C(=O)NO)ccc21 [Compound 73] | – |
| 3690 | 2720 | Cn1c(CCc2ccccc2)nc2ccc(/C=C/C(=O)NO)cc21 [Compound 59] | IC50 [2]: 382 nM |
| – | 7090 | CCn1c(CCNS(=O)(=O)c2ccccc2)nc2cc(/C=C/C(=O)NO)ccc21 [Compound 71] | – |
| 3650 | 2820 | O=C(/C=C/c1ccc2c(c1)nc(CCc1ccccc1)n2CCN1CCOCC1)NO [Compound 44] | IC50 [2]: 268 nM; IC50 [3]: 345 nM |
| 31000 | 25600 | O=C(NO)c1ccc2c(c1)nc(CCc1ccccc1)n2CCCO [Compound 40, 1-(3-Hydroxy-propyl)-2-phenethyl-1H-benzimidazol-5-carboxylic acid hydroxyamide] | – |
| – | 170 | CN(C)CC(C)(C)Cn1c(CCc2ccc(F)cc2)nc2cc(/C=C/C(=O)NO)ccc21 [Compound 84] | – |
| – | 2880 | CC(C)(C)Cn1c(CCc2ccccc2)nc2cc(/C=C/C(=O)NO)ccc21 [Compound 75] | IC50 [2]: 290 nM |
| – | 47700 | O=C(/C=C/c1ccc2[nH]c(CCc3cccnc3)nc2c1)NO [Compound 87] | – |
| 19800 | 11600 | COc1ccc(CNCc2nc3cc(/C=C/C(=O)NO)ccc3n2C)cc1 [Compound 62] | – |
| – | 1650 | O=C(/C=C/c1ccc2[nH]c(CCc3ccc(F)cc3)nc2c1)NO [Compound 85] | – |
